The nature of data set [1]: Local tolerance of CNP compounds in rats (s.c. injection, histopathology). It is filed as in vivo, Sprague Dawley rat. The note with it: for assessment for human subcutaneous administration: based on rat local tolerance. Summed up: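 Male Sprague Dawley rats (10-11 weeks) received two s.c. injections of 250 or 350 uL compound (1000 nmol/mL formulation) in neck or flank, 120 h before necropsy; vehicle 5 mM sodium acetate/250 mM glycerol pH 4.0 or 8 mM sodium phosphate/250 mM glycerol pH 7.4. Injection sites were scored macroscopically, H&E-stained and graded on a 5-level scale (Min to Sev).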

A short description of data set [2]: CNP local tolerance study in LYD pigs (s.c. injection, histopathology). It is filed as in vivo, domestic LYD pig. As to conditions: for assessment for human subcutaneous administration: based on pig local tolerance. Summed up: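 Domestic pigs dosed s.c. mid-back, 100 or 200 μl at approx. 4400 μM, in phosphate pH 6.5 or acetate pH 4.0 buffers with glycerol or propylene glycol; saline as negative control. Sites excised 4 or 5 days post injection, H&E sections graded on 5-level scale; necrosis used as marker.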

Data set [3] concerns mouse metatarsal bones. As to the kind of experiment: Mouse metatarsal bone dissection and culture (ex vivo bone growth). It is filed as cell-based, mouse (NMRI). The note with it: 100 nM, n=8. The method, then:
The purpose of this study was to evaluate bone growth after administration of CNP compounds in an ex vivo mouse model.
Procedure: One-day old mouse pups (NMRI, Javier Labs France) were euthanised prior to dissection. All applicable international and internal Novo Nordisk guidelines for care and use of animals were followed. The three middle metatarsal bones were dissected out from each hind paw. The dissected bones were placed in 24-well cell culture plates and cultured in 400 μl a-Minimum Essential Media supplemented with 0.2% BSA, 1% Pen/Strep at 37° C. and 5% CO2. The bones from all animals were randomised into a control group and six CNP compound-treated groups (100 nM; n=8). The medium was changed every 2-3 days. All compounds were formulated according to the principles described in General Methods of Preparation—Method G. Compounds 9435 and 9483 were formulated in A) 5 mM sodium acetate, 250 mM glycerol, pH 4.0 while compounds 9384, 9407, 9480 and 9482 were formulated in B) 8 mM sodium phosphate, 250 mM glycerol, pH 7.4.
Digital pictures were captured on day 0, 4, 7, 11, and 14 using a digital camera attached to a Nikon microscope. The length of each metatarsal bone was measured using ImageJ software and increase in bone length was expressed as percentage change from the length measured at the day of dissection (Mean (SD)).
In Table 27, metatarsal bones were isolated from mice and cultured for up to 14 days. Length was measured every 3-4 days throughout the study and expressed as percentage change from day 0 (Mean (SD)). Statistically significant differences are indicated compared to control group (two-way ANOVA).

[4] abbreviates: 5 days after subcutaneous injections in the rat.
Setting [5] is: 5 days after subcutaneous injections in the pig.
[6] abbreviates: LYD pig, s.c., approx. 4400 μM, 4 or 5 days after injection.

The structures appear in SMILES notation. Starred links: 1 amine or outer side, 2 acyl side, 3 side chain; linkers in the order of their positions; H or OH if unused. Positions of bridges follow the written chain, without caps; N, C: chain ends. Residues, ends and D or L forms follow the SMILES beside them. *: point of attachment. C18 diacid = O=C(O)CCCCCCCCCCCCCCCCC(=O)*; γGlu = O=C(O)[C@H](CCC(=O)[*:2])N[*:1]; AEEA = NCCOCCOCC(=O)O

As to `CC[C@H](C)[C@@H]1NC(=O)[C@H](CCCNC(=N)N)NC(=O)[C@H](CCC(=O)O)NC(=O)[C@H](CC(C)C)NC(=O)[C@H](CCCCN)NC(=O)[C@H](CC(C)C)NC(=O)CNC(=O)[C@H](Cc2ccccc2)NC(=O)[C@@H](NC(=O)CNC(=O)[C@H](CCCCN)NC(=O)[C@H](CO)NC(=O)[C@H](CC(C)C)NC(=O)CNC(=O)[C@H](CCCCN)NC(=O)[C@H](CCCCN)NC(=O)[C@H](CCC(N)=O)NC(=O)[C@H](C)NC(=O)CNC(=O)[C@H](CCCCN)NC(=O)[C@H](Cc2ccc(O)cc2)NC(=O)[C@H](CCCCN)NC(=O)[C@H](CCCNC(=N)N)NC(=O)[C@H](C)NC(=O)COCCOCCNC(=O)COCCOCCNC(=O)CC[C@H](NC(=O)CCCCCCCCCCCCCCCCC(=O)O)C(=O)O)CSSC[C@@H](C(=O)O)NC(=O)CNC(=O)[C@H](CC(C)C)NC(=O)CNC(=O)[C@H](CO)NC(=O)[C@H](CC(C)C)NC(=O)[C@H](CO)NC(=O)CNC1=O` [compound 0776] ({C18 diacid-γGlu-AEEA-AEEA}-ARKYKGAQKKGLSKGCFGLKLERIGSLSGLGC-OH; disulfide 16-32), the local subcutaneous necrosis entry in data set [1] (rat, in vivo, sc) was “moderate to marked”; in data set [2] (pig, in vivo, sc), “moderate to marked”.

In the case of `CC[C@H](C)[C@@H]1NC(=O)[C@H](CCCNC(=N)N)NC(=O)[C@H](CC(=O)O)NC(=O)[C@H](CC(C)C)NC(=O)[C@@H]2CCCN2C(=O)[C@H](CC(C)C)NC(=O)CNC(=O)[C@H](Cc2ccccc2)NC(=O)[C@@H](NC(=O)CNC(=O)[C@H](CCC(N)=O)NC(=O)[C@H](CO)NC(=O)[C@H](CC(C)C)NC(=O)CNC(=O)[C@H](CCCCN)NC(=O)[C@H](CCCCN)NC(=O)[C@H](CCC(N)=O)NC(=O)[C@H](C)NC(=O)CNC(=O)[C@H](CCCCN)NC(=O)[C@H](Cc2ccc(O)cc2)NC(=O)[C@H](CCCCN)NC(=O)[C@H](CCCNC(=N)N)NC(=O)[C@H](C)NC(=O)COCCOCCNC(=O)COCCOCCNC(=O)COCCOCCNC(=O)COCCOCCNC(=O)CC[C@H](NC(=O)CC[C@H](NC(=O)CC[C@H](NC(=O)CC[C@H](NC(=O)CC[C@H](NC(=O)CCCCCCCCCCCCCCCCC(=O)O)C(=O)O)C(=O)O)C(=O)O)C(=O)O)C(=O)O)CSSC[C@@H](C(=O)O)NC(=O)CNC(=O)[C@H](CC(C)C)NC(=O)CNC(=O)[C@H](CO)NC(=O)[C@H](CC(C)C)NC(=O)[C@H](CO)NC(=O)CNC1=O` [compound 9407] ({C18 diacid-γGlu-γGlu-γGlu-γGlu-γGlu-AEEA-AEEA-AEEA-AEEA}-ARKYKGAQKKGLSQGCFGLPLDRIGSLSGLGC-OH; disulfide 16-32), the local subcutaneous necrosis result in data set [1] (setting [4]) is reported as “no or mild”; in data set [2] (setting [5]), “no to minimal”. Also, the “assessment for human subcutaneous administration” value (from here on “assessment”) in data set [1] and in data set [2] was “acceptable” each time. The “Increase in bone length, mean (%) change from day 0” value turned out to be 35.1% in data set [3] (day 4 in culture), 45.4% in data set [3] (day 7 in culture), 53.2% in data set [3] (day 11 in culture) and 55.8% in data set [3] (day 14 in culture).

As for `CC[C@H](C)[C@@H]1NC(=O)[C@H](CCCNC(=N)N)NC(=O)[C@H](CC(=O)O)NC(=O)[C@H](CC(C)C)NC(=O)[C@@H]2CCCN2C(=O)[C@H](CC(C)C)NC(=O)CNC(=O)[C@H](Cc2ccccc2)NC(=O)[C@@H](NC(=O)CNC(=O)[C@H](CCC(N)=O)NC(=O)[C@H](CO)NC(=O)[C@H](CO)NC(=O)CNC(=O)[C@H](CCCCN)NC(=O)[C@H](CCCCN)NC(=O)[C@H](CCC(N)=O)NC(=O)[C@H](C)NC(=O)CNC(=O)[C@@H]2CCCN2C(=O)[C@H](C)NC(=O)[C@H](CCC(N)=O)NC(=O)CNC(=O)COCCOCCNC(=O)COCCOCCNC(=O)CC[C@H](NC(=O)CCCCCCCCCCCCCCCCC(=O)O)C(=O)O)CSSC[C@@H](C(=O)O)NC(=O)CNC(=O)[C@H](CC(C)C)NC(=O)CNC(=O)[C@H](CO)NC(=O)[C@H](CC(C)C)NC(=O)[C@H](CO)NC(=O)CNC1=O` [compound 9384] ({C18 diacid-γGlu-AEEA-AEEA}-GQAPGAQKKGSSQGCFGLPLDRIGSLSGLGC-OH; disulfide 15-31; C-terminus assumed), the local subcutaneous necrosis entry in data set [1] (setting [4]) is given as “no or mild”; in data set [2] (setting [5]) it was “no to minimal”. Besides, the “assessment” value in data set [1] and in data set [2] was “acceptable” throughout. Further, the “Increase in bone length, mean (%) change from day 0” value in data set [3] (day 4 in culture) is recorded as 33.6%; in data set [3] (day 7 in culture), 42.6%; in data set [3] (day 11 in culture) it was 50.1%; in data set [3] (day 14 in culture), 54.4%.

In the case of `CC[C@H](C)[C@@H]1NC(=O)[C@H](CCCNC(=N)N)NC(=O)[C@H](CC(=O)O)NC(=O)[C@H](CC(C)C)NC(=O)[C@@H]2CCCN2C(=O)[C@H](CC(C)C)NC(=O)CNC(=O)[C@H](Cc2ccccc2)NC(=O)[C@@H](NC(=O)CNC(=O)[C@H](CCC(N)=O)NC(=O)[C@H](CO)NC(=O)[C@H](CC(C)C)NC(=O)CNC(=O)[C@H](CCCCN)NC(=O)[C@H](CCCCN)NC(=O)[C@H](CCC(N)=O)NC(=O)[C@H](C)NC(=O)CNC(=O)[C@H](CCCCN)NC(=O)[C@H](Cc2ccc(O)cc2)NC(=O)[C@H](CCCCN)NC(=O)[C@H](CCCNC(=N)N)NC(=O)[C@H](C)NC(=O)COCCOCCNC(=O)COCCOCCNC(=O)COCCOCCNC(=O)COCCOCCNC(=O)CC[C@H](NC(=O)CC[C@H](NC(=O)CC[C@H](NC(=O)CC[C@H](NC(=O)CC[C@H](NC(=O)CCCCCCCCCCCCCCCCC(=O)O)C(=O)O)C(=O)O)C(=O)O)C(=O)O)C(=O)O)CSSC[C@@H](C(=O)O)NC(=O)CNC(=O)[C@H](CC(C)C)NC(=O)CNC(=O)[C@H](CO)NC(=O)[C@H](CC(C)C)NC(=O)[C@H](CO)NC(=O)CNC1=O` [Compound 9407] ({C18 diacid-γGlu-γGlu-γGlu-γGlu-γGlu-AEEA-AEEA-AEEA-AEEA}-ARKYKGAQKKGLSQGCFGLPLDRIGSLSGLGC-OH; disulfide 16-32), the “Number of injections by severity of necrosis: NAD (No Abnormalities Detected)” value in data set [1] (rat, s.c. 350 μl, about 1000 nmol/ml, 5 days post injection) came to 4. In data set [2] (setting [6]), the “Number of injections by severity of necrosis: Min.” value came out at 1 and the “Number of injections by severity of necrosis: NAD” value amounted to 3.

Regarding `CC[C@H](C)[C@@H]1NC(=O)[C@H](CCCNC(=N)N)NC(=O)[C@H](CC(=O)O)NC(=O)[C@H](CC(C)C)NC(=O)[C@@H]2CCCN2C(=O)[C@H](CC(C)C)NC(=O)CNC(=O)[C@H](Cc2ccccc2)NC(=O)[C@@H](NC(=O)CNC(=O)[C@H](CO)NC(=O)[C@H](CO)NC(=O)[C@@H](NC(=O)CNC(=O)[C@@H](NC(=O)[C@H](Cc2c[nH]cn2)NC(=O)[C@H](CCC(N)=O)NC(=O)[C@H](C)NC(=O)CNC(=O)[C@H](Cc2c[nH]cn2)NC(=O)[C@H](Cc2ccc(O)cc2)NC(=O)[C@H](CCCCN)NC(=O)[C@H](CCCNC(=N)N)NC(=O)[C@H](C)NC(=O)COCCOCCNC(=O)COCCOCCNC(=O)CC[C@H](NC(=O)CCCCCCCCCCCCCCCCC(=O)O)C(=O)O)[C@@H](C)O)C(C)C)CSSC[C@@H](C(=O)O)NC(=O)CNC(=O)[C@H](CC(C)C)NC(=O)CNC(=O)[C@H](CO)NC(=O)[C@H](CC(C)C)NC(=O)[C@H](CO)NC(=O)CNC1=O` [compound 1351] ({C18 diacid-γGlu-AEEA-AEEA}-ARKYHGAQHTGVSSGCFGLPLDRIGSLSGLGC-OH; disulfide 16-32), in data set [1] (setting [4]), the local subcutaneous necrosis result was “no or mild”. In data set [1], the “assessment” value is “acceptable”.
